Results reported in patent US20110300198A1, “HYDROCOLLOID - ESSENTIAL OIL PATCHES” (priority 2010, published 2011).
Values joined by “and” are separate entries in the source; they are usually repeats but may differ in a detail not shown here. Identical values can stand only once. Marks after values point to notes of the source that are not given here.

Experiments:
[1] = Ex-vivo transfer of essential-oil constituents through the skin in Franz diffusion cells; type: in vitro ADME, rat; settings: for Accumulated concentration transferred through the skin: from gum karaya-Lavandula angustifolia essential oil patch (7.5% oil); for Accumulated concentration diffused through the skin: mixture of Lavandula angustifolia essential oil and almond oil rubbed on the skin
Experimental: Ex-vivo release studies were performed in Franz diffusion cells (FCs) (PermeGear, Hellertown, Pa.). Stomach skin pieces (1.2 cm×1.2 cm) from a male rat, which were stored in the freezer for 1 month, were thawed at room temperature and placed in glass FCs. The surface area for absorption was 0.64 cm2. The FCs were thermoregulated with a water jacket at 32° C. The 4.5-ml volume of the receptor chamber of the FC was filled with a receptor solution containing 5% (w/v) bovine serum albumin (BSA) diluted with phosphate buffer pH 7.4. […] The receptor solution was continuously agitated with a magnetic stirrer. During the experiments, the donor compartments and sampling arms were sealed to prevent evaporation. The fluid in the receptor chamber was removed after different periods of time (0, 6, 12, 24, 36 and 48 h) and replaced with fresh phosphate buffer solution. Samples were stored at 4° C. after sampling, prior to analysis. Samples were analyzed in a gas chromatograph (Agilent Technologies, Santa Clara, Calif.) with a WAX 30 m×0.32 mm×0.25 μm (Agilent) column.
Transdermal delivery of essential-oil components through rat skin from both lavender essential oil, which includes a high proportion of terpenoids, and Valencia orange essential oil, which includes a considerable amount of terpene, entrapped within gum-karaya-based patches, was examined. In addition to the regular patch adhered to the skin to be tested for essential-oil delivery by the traditional FCs and by in vivo tests (detailed below), another experiment was performed in which the skin was smeared with an almond-essential oil mixture, in order to partially imitate the situation in which the skin is massaged in an aromatherapy session. All experiments were conducted at ambient temperature and the inclusion of the essential oil as part of the almond oil-essential oil mixture (for the massage-like simulation) was equal in quantity and proportion to the inclusion of essential oil within the patch.

[2] = In-vivo experiment with WAX column, constituents in blood; design: species or system rat; settings: 7.5% lavender oil patch on abdomen; split injection
Description: Male Sprague-Dawley rats, weighing 300-350 g, were used in the studies (Harlan, Rehovot, Israel). The experimental protocols were approved by the Hebrew University of Jerusalem Committee on the Use and Care of Animals. Rats were maintained under specified-pathogen-free (SPF) conditions and were allowed to acclimate to the environment for at least 7 days before their use in the study. Rats were anesthetized and the fur on their stomach shaved prior to exposure. Gum karaya patches with and without lavender essential oil were applied to the rat's stomach skin. Each rat was housed in an individual cage in order to prevent oral contamination of the essential oil by one rat eating another's patch. Blood samples (0.5 ml) were taken at 0, 12, 24, 36, 48 and 60 h from a nick at the tip of tail to determine contents of essential-oil components. Rats were restrained and the tail was gently massaged to facilitate blood collection. Blood samples were collected in vials containing 0.1 ml heparin (100 kU, Sigma). A 10-μl volume of aqueous linalyl isovalerate stock solution was added as an internal standard to each blood sample and samples were stored at −80° C. […] Urine samples were similarly analyzed by gas chromatography (GC). […]
Patches that included lavender essential oil were adhered to the abdomen skin for 60 h. […] Between 12 and 36 h, a similar, non-significant change in levels was detected. […]

[3] = cited from earlier work

Compound	% diffused (of initial amount of entrapped essential oil) ([1]; Almond-lavandula mixture, 0 h)	% diffused (of initial amount of entrapped essential oil) ([1]; Almond-lavandula mixture, 6 h)	% diffused (of initial amount of entrapped essential oil) ([1]; Almond-lavandula mixture, 12 h)	% diffused (of initial amount of entrapped essential oil) ([1]; Almond-lavandula mixture, 24 h)	% diffused (of initial amount of entrapped essential oil) ([1]; Lavandula patch, 0 h)	% diffused (of initial amount of entrapped essential oil) ([1]; Lavandula patch, 6 h)	% diffused (of initial amount of entrapped essential oil) ([1]; Lavandula patch, 12 h)	% diffused (of initial amount of entrapped essential oil) ([1]; Lavandula patch, 24 h)	Accumulated concentration transferred through the skin ([1]; 6 h)	Accumulated concentration transferred through the skin ([1]; 12 h)	Accumulated concentration transferred through the skin ([1]; 24 h)	Accumulated concentration diffused through the skin ([1]; 6 h)	Accumulated concentration diffused through the skin ([1]; 12 h)	Accumulated concentration diffused through the skin ([1]; 24 h)	Calculated steady-state flux ([1]; rubbing in a mixture with almond oil) [mg.cm^−2 h^−1]	Calculated steady-state flux ([1]; transferred from a lavender essential oil patch) [mg.cm^2 h^−1]	Level in blood after 60 h [2]	Log P [3]
C=CC(C)(O)CCC=C(C)C (centres unmarked) [Linalool]	0.00^a %	1.29 ± 1.53^a %	2.01 ± 2.09^a %	3.93% and 3.93 ± 0.01^a %	0.00^a %	0.73 ± 0.16^b %	1.53 ± 0.03^c %	2.74 ± 0.31^d %	16.49 ± 2.81^a mg/L	34.46 ± 1.20^b mg/L	61.64 ± 3.83^c mg/L	31.07 ± 36.72^a mg L^−1	48.34 ± 50.41^a mg L^−1	94.78 ± 0.19^a mg L^−1	0.027	0.018	no traces	about 3
C=CC(C)(CCC=C(C)C)OC(C)=O (centres unmarked) [Linalyl acetate]	0.00^a %	0.107 ± 0.150^a %	0.153 ± 0.216^a %	0.246 ± 0.344^a %	0.00^a %	0.008 ± 0.011^a %	0.013 ± 0.018^a %	–	0.15 ± 0.14^a mg/L	0.26 ± 0.25^a mg/L	0.37 ± 0.01^a mg/L	2.30 ± 2.24^a mg L^−1	3.33 ± 3.23^a mg L^−1	5.62 ± 4.10^a mg L^−1	–	–	–	about 4
